Each structure is given as a SMILES string.

The target of the assay is T1, CD73 (Homo sapiens, UniProt P21589).
T1 sequence (P21589 27-549): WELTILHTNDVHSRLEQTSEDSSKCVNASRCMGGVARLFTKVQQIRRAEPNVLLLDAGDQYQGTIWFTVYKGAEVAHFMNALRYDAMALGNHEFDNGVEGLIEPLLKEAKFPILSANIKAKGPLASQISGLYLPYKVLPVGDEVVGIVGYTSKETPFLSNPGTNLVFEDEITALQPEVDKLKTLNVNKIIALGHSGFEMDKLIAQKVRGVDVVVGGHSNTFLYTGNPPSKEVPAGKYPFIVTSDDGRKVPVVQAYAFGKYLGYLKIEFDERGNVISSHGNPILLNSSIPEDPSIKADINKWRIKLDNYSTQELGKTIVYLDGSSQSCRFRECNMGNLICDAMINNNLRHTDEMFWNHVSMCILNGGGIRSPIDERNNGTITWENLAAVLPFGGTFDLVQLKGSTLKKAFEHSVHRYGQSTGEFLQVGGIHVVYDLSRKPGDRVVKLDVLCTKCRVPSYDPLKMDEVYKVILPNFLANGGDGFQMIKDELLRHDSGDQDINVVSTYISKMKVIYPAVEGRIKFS
Description: Biochemical assay of CD73 inhibition (Malachite Green). The conditions noted are these: CD73 0.3208 nM, AMP 15 μM, Tris-HCl pH 7.4, Malachite Green absorbance readout; read-out: CD73_Biochem. How it is done: Example A1: Biochemical Assay
Assay Reaction Conditions
• Assay Volume: 70 μl • Reaction Volume: 50 μl • CD73: 0.3208 nM • AMP:15 μM • Assay Buffer: 2 5 mM Tris-HCL, pH 7.4, 0.01% Brij-35, 0.01% BSA, 5 mM MgCl2 Assay Procedure:
Made dose titration of testing compounds in assay buffer, 10 points 1/2 log titrations in duplicates starting at 100 μM.
Added 25 µl of CD73 to each well for a final concentration of […].
Incubated at RT for 15 min.
Added 25 µl of AMP to each well for a final concentration of 15 μM.
Incubated at RT for 10 min.
Added […] of Malachite Green Reagent A, incubate at RT for 10 min.
Added […] of Malachite Green Reagent B, incubate at RT for 45 min.
Read the Absorbance on Envision plate reader using excitation filter: Cy5 […].
The ability of the compounds disclosed herein to inhibit CD73 activity was quantified and the respective IC50 values were determined. Table 2 provides the biochemical IC50 values of compounds disclosed herein.
Regarding `CC(C)CNc1nc(Cl)nc2c1cnn2[C@@H]1O[C@H](CO[C@](CO)(Cc2nn[nH]n2)P(=O)(O)O)[C@@H](O)[C@H]1O` [Example 33, ((R)-2-(((2R,3S,4R,5R)-5-(6-chloro-4-(isobutylamino)-1H-pyrazolo[3,4-d]pyrimidin-1-yl)-3,4-dihydroxytetrahydrofuran-2-yl)methoxy)-1-hydroxy-3-(2H-tetrazol-5-yl)propan-2-yl)phosphonic acid], the IC50 is at most 10 nM.
Regarding `COC[C@@](Cc1nn[nH]n1)(OC[C@H]1O[C@@H](n2ncc3c(NC(C)C)nc(Cl)nc32)[C@H](O)[C@@H]1O)P(=O)(O)O` [Example 30, ((S)-2-(((2R,3S,4R,5R)-5-(6-chloro-4-(isopropylamino)-1H-pyrazolo[3,4-d]pyrimidin-1-yl)-3,4-dihydroxytetrahydrofuran-2-yl)methoxy)-1-methoxy-3-(2H-tetrazol-5-yl)propan-2-yl)phosphonic acid], the IC50 lay within 10 to 100 nM.
As to `O=P(O)(O)C(COCc1nnn[nH]1)(COCC1CC1)OC[C@H]1O[C@@H](n2ncc3c(NC4CCCC4)nc(Cl)nc32)[C@H](O)[C@@H]1O` (stereo in doubt) [Example 45, ((S)-1-((1H-tetrazol-5-yl)methoxy)-2-(((2R,3S,4R,5R)-5-(6-chloro-4-(cyclopentylamino)-1H-pyrazolo[3,4-d]pyrimidin-1-yl)-3,4-dihydroxytetrahydrofuran-2-yl)methoxy)-3-(cyclopropylmethoxy)propan-2-yl)phosphonic acid], the IC50 was at most 10 nM.
Take `O=P(O)(O)C(COCc1nnn[nH]1)(COCC1CC1)OC[C@H]1O[C@@H](n2ncc3c(NC4CCCC4)nc(Cl)nc32)[C@H](O)[C@@H]1O` (stereo in doubt) [Example 44, ((R)-1-((1H-tetrazol-5-yl)methoxy)-2-(((2R,3S,4R,5R)-5-(6-chloro-4-(cyclopentylamino)-1H-pyrazolo[3,4-d]pyrimidin-1-yl)-3,4-dihydroxytetrahydrofuran-2-yl)methoxy)-3-(cyclopropylmethoxy)propan-2-yl)phosphonic acid]: the IC50 is at most 10 nM.
With `COCC(CC(=O)NO)(OC[C@H]1O[C@@H](n2ncc3c(NC4CCCC4)nc(Cl)nc32)[C@H](O)[C@@H]1O)P(=O)(O)O` (stereo partly drawn) [Example 11, (2-(((2R,3S,4R,5R)-5-(6-chloro-4-(cyclopentylamino)-1H-pyrazolo[3,4-d]pyrimidin-1-yl)-3,4-dihydroxytetrahydrofuran-2-yl)methoxy)-4-(hydroxyamino)-1-methoxy-4-oxobutan-2-yl)phosphonic acid] the figure was at most 10 nM; with `O=P(O)(O)[C@](CO)(COCc1nn[nH]n1)OC[C@H]1O[C@@H](n2ncc3c(NCC4CC4)nc(Cl)nc32)[C@H](O)[C@@H]1O` [Example 21, ((R)-1-((2H-tetrazol-5-yl)methoxy)-2-(((2R,3S,4R,5R)-5-(6-chloro-4-((cyclopropylmethyl)amino)-1H-pyrazolo[3,4-d]pyrimidin-1-yl)-3,4-dihydroxytetrahydrofuran-2-yl)methoxy)-3-hydroxypropan-2-yl)phosphonic acid], at most 10 nM; with `CC(CS(C)(=O)=O)(OC[C@H]1O[C@@H](n2ncc3c(NC4CCCC4)nc(Cl)nc32)[C@H](O)[C@@H]1O)P(=O)(O)O` (stereo partly drawn) [Example 57, (2-(((2R,3S,4R,5R)-5-(6-chloro-4-(cyclopentylamino)-1H-pyrazolo[3,4-d]pyrimidin-1-yl)-3,4-dihydroxytetrahydrofuran-2-yl)methoxy)-1-(methylsulfonyl)propan-2-yl)phosphonic acid], 10 to 100 nM.
As to `O=P(O)(O)C(CO)(Cc1c[nH]nn1)OC[C@H]1O[C@@H](n2ncc3c(NC4CCCC4)nc(Cl)nc32)[C@H](O)[C@@H]1O` (stereo partly drawn) [Example 13, (2-(((2R,3S,4R,5R)-5-(6-chloro-4-(cyclopentylamino)-1H-pyrazolo[3,4-d]pyrimidin-1-yl)-3,4-dihydroxytetrahydrofuran-2-yl)methoxy)-1-hydroxy-3-(1H-1,2,3-triazol-4-yl)propan-2-yl)phosphonic acid], the IC50 is 10 to 100 nM.
The same measure for `COCC(CC(=O)NS(C)(=O)=O)(OC[C@H]1O[C@@H](n2ncc3c(NC4CCCC4)nc(Cl)nc32)[C@H](O)[C@@H]1O)P(=O)(O)O` (stereo partly drawn) [Example 12, (2-(((2R,3S,4R,5R)-5-(6-chloro-4-(cyclopentylamino)-1H-pyrazolo[3,4-d]pyrimidin-1-yl)-3,4-dihydroxytetrahydrofuran-2-yl)methoxy)-1-methoxy-4-(methylsulfonamido)-4-oxobutan-2-yl)phosphonic acid]: at most 10 nM; for `O=P(O)(O)[C@@](CO)(Cc1nn[nH]n1)OC[C@H]1O[C@@H](n2ncc3c(NCc4ccccc4Cl)nc(Cl)nc32)[C@H](O)[C@@H]1O` (single isomer, unassigned) [Example 3]: at most 10 nM; for `O=P(O)(O)[C@@](CO)(Cc1nn[nH]n1)OC[C@H]1O[C@@H](n2ncc3c(N[C@@H]4CCc5ccccc54)nc(Cl)nc32)[C@H](O)[C@@H]1O` [Example 48, ((R)-2-(((2R,3S,4R,5R)-5-(6-chloro-4-(((R)-2,3-dihydro-1H-inden-1-yl)amino)-1H-pyrazolo[3,4-d]pyrimidin-1-yl)-3,4-dihydroxytetrahydrofuran-2-yl)methoxy)-1-hydroxy-3-(2H-tetrazol-5-yl)propan-2-yl)phosphonic acid]: at most 10 nM.
On to `O=P(O)(O)C(CO)(Cc1nn[nH]n1)OC[C@H]1O[C@@H](n2ncc3c(NC4CCC4)nc(CO)nc32)[C@H](O)[C@@H]1O` (stereo partly drawn) [Example 17, (2-(((2R,3S,4R,5R)-5-(4-(cyclobutylamino)-6-(hydroxymethyl)-1H-pyrazolo[3,4-d]pyrimidin-1-yl)-3,4-dihydroxytetrahydrofuran-2-yl)methoxy)-1-hydroxy-3-(2H-tetrazol-5-yl)propan-2-yl)phosphonic acid], for which the IC50 is at most 10 nM.
In the case of `CC(Cc1nn[nH]n1)(OC[C@H]1O[C@@H](n2ncc3c(NC4CCCC4)nc(Cl)nc32)[C@H](O)[C@@H]1O)P(=O)(O)O` (stereo partly drawn) [Example 43, (2-(((2R,3S,4R,5R)-5-(6-chloro-4-(cyclopentylamino)-1H-pyrazolo[3,4-d]pyrimidin-1-yl)-3,4-dihydroxytetrahydrofuran-2-yl)methoxy)-1-(2H-tetrazol-5-yl)propan-2-yl)phosphonic acid], the IC50 is at most 10 nM.
For the compound `O=P(O)(O)[C@@](CO)(COCc1nn[nH]n1)OC[C@H]1O[C@@H](n2ncc3c(NCC4CC4)nc(Cl)nc32)[C@H](O)[C@@H]1O` [Example 54, ((S)-1-((2H-tetrazol-5-yl)methoxy)-2-(((2R,3S,4R,5R)-5-(6-chloro-4-((cyclopropylmethyl)amino)-1H-pyrazolo[3,4-d]pyrimidin-1-yl)-3,4-dihydroxytetrahydrofuran-2-yl)methoxy)-3-hydroxypropan-2-yl)phosphonic acid], the IC50 was at most 10 nM.
With `O=c1[nH]c(COCC(CO)(OC[C@H]2O[C@@H](n3ncc4c(NC5CCCC5)nc(Cl)nc43)[C@H](O)[C@@H]2O)P(=O)(O)O)no1` (stereo partly drawn) [Example 51, (2-(((2R,3S,4R,5R)-5-(6-chloro-4-(cyclopentylamino)-1H-pyrazolo[3,4-d]pyrimidin-1-yl)-3,4-dihydroxytetrahydrofuran-2-yl)methoxy)-1-hydroxy-3-((5-oxo-4,5-dihydro-1,2,4-oxadiazol-3-yl)methoxy)propan-2-yl)phosphonic acid] the figure was at most 10 nM.
The same measure for `CC(C)CNc1nc(Cl)nc2c1cnn2[C@@H]1O[C@H](COC(CO)(Cc2nn[nH]n2)P(=O)(O)O)[C@@H](O)[C@H]1O` (stereo partly drawn) [Example 16, (2-(((2R,3S,4R.,5R)-5-(6-chloro-4-(isobutylamino)-1H-pyrazolo[3,4-d]pyrimidin-1-yl)-3,4-dihydroxytetrahydrofuran-2-yl)methoxy)-1-hydroxy-3-(2H-tetrazol-5-yl)propan-2-yl)phosphonic acid]: at most 10 nM; for `COCCOCC(COCc1nnn[nH]1)(OC[C@H]1O[C@@H](n2ncc3c(NC4CCCC4)nc(Cl)nc32)[C@H](O)[C@@H]1O)P(=O)(O)O` (stereo partly drawn) [Example 40, (1-((1H-tetrazol-5-yl)methoxy)-2-(((2R,3S,4R,5R)-5-(6-chloro-4-(cyclopentylamino)-1H-pyrazolo[3,4-d]pyrimidin-1-yl)-3,4-dihydroxytetrahydrofuran-2-yl)methoxy)-3-(2-methoxyethoxy)propan-2-yl)phosphonic acid]: at most 10 nM; for `O=P(O)(O)[C@@](CO)(COCc1nn[nH]n1)OC[C@H]1O[C@@H](n2ncc3c(NC4CCCC4)nc(Cl)nc32)[C@H](O)[C@@H]1O` [Example 25, ((S)-1-((2H-tetrazol-5-yl)methoxy)-2-(((2R,3S,4R,5R)-5-(6-chloro-4-(cyclopentylamino)-1H-pyrazolo[3,4-d]pyrimidin-1-yl)-3,4-dihydroxytetrahydrofuran-2-yl)methoxy)-3-hydroxypropan-2-yl)phosphonic acid]: at most 10 nM.

Values taken from patent US11130778B2, “CD73 inhibitors” (ORIC Pharmaceuticals, Inc., priority 2019, dated 2021).
